This is an account of results in US20120135959A1, “Metalloprotein inhibitors containing nitrogen based ligands” (priority 2006, published 2012).

One assay has as its target T1, MMP-3 (Homo sapiens, UniProt P08254).
T1 construct: purchased Biomol Research Laboratories
The experiment in a line: biochemical. It is filed as biochemical.

For assay [1], the target named is recombinant anthrax lethal factor (Bacillus anthracis, UniProt P15917). The experiment in a line: biochemical. The class given is biochemical.
recombinant anthrax lethal factor, sequence (P15917 34-809 limits assumed): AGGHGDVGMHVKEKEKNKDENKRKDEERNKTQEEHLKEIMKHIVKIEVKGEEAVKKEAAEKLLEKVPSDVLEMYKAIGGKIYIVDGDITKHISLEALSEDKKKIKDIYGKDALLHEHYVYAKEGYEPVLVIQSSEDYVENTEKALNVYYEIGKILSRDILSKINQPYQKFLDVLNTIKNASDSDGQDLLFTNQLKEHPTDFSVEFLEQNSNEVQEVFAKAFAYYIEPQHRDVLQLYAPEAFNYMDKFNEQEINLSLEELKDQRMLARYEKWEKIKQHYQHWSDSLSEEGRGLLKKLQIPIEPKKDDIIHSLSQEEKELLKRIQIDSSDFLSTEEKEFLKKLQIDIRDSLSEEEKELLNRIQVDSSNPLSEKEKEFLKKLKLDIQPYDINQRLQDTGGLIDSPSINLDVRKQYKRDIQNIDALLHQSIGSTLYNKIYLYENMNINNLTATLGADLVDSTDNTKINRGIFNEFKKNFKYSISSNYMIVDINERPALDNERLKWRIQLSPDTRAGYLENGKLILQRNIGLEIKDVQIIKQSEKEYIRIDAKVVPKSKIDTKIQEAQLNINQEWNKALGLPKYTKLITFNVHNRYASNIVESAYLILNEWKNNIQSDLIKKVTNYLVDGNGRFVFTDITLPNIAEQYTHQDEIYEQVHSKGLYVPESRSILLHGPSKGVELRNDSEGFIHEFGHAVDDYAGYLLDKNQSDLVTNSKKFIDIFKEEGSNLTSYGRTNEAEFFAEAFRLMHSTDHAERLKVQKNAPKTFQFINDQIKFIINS
Assay [2] concerns the target T2, MMP-1 (Homo sapiens, UniProt P03956).
T2 sequence (P03956 100-469): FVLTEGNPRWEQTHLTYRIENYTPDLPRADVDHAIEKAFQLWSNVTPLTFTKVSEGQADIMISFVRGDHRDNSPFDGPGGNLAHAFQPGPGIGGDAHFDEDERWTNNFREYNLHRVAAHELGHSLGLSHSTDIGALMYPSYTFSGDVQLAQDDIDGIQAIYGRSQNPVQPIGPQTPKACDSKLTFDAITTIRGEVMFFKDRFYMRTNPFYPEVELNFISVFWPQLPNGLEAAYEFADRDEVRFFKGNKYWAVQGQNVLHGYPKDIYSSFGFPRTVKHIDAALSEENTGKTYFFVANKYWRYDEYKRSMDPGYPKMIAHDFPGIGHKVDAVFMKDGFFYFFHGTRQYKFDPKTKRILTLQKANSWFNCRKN
The note with it: for potency v. AHA: based on MMP-1 IC50; for IC50: read-out: MMP-1 IC50, fluorescence-based assay, pH 7.5, 1 h preincubation at 37° C., at least three independent experiments, spread in brackets.

The target in assay [3] is T3, soybean lipoxygenase (sbLO) (Glycine max, UniProt P08170).
T3 construct: purchased Sigma-Aldrich
T3 sequence (P08170 1-839): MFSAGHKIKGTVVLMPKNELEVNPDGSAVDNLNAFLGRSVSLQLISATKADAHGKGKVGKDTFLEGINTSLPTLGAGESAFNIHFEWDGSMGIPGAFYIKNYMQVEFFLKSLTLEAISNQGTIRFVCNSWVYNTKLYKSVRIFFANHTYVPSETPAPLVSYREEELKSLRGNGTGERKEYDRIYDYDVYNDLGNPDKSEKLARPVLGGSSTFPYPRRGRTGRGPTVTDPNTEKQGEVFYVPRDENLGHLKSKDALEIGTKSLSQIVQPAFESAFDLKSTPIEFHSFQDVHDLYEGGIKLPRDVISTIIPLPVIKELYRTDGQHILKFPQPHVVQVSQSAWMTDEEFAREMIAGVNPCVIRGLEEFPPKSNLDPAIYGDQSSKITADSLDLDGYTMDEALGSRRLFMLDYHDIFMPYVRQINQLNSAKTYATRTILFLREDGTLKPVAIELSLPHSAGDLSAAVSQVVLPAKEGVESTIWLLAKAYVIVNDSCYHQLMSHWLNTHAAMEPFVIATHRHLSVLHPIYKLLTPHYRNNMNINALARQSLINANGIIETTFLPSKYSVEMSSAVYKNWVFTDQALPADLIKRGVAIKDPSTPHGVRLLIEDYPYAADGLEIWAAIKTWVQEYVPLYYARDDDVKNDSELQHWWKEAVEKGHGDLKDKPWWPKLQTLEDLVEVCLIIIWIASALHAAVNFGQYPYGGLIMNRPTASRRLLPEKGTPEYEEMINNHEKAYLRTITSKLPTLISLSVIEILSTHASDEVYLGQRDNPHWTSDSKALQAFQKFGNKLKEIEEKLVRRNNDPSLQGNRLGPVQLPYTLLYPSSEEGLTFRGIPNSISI
As to the kind of experiment: Lipoxygenase assay (absorbance at 234 nm, linoleic acid substrate). The class given is biochemical. The settings on record: 3 hours preincubation; for inhibition at 300 µM: reference compounds, read-out: inhibition of product formation relative to control (no inhibitor).

For assay [4], the target named is T2, MMP-1. As to the kind of experiment: biochemical.

Where two headings read alike, the source gives them in different places.

T1 sequence (P08254 100-477): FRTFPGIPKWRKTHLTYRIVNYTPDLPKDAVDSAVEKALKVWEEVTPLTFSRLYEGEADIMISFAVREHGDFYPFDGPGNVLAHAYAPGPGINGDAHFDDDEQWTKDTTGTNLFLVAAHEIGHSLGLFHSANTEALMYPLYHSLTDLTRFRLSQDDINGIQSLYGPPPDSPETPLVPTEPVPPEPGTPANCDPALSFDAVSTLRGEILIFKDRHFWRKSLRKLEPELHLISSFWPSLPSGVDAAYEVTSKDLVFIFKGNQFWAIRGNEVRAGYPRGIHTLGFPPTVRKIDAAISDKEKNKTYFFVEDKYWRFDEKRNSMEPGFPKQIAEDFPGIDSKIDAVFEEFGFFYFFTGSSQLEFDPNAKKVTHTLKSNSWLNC

With `O=C(O)c1cccc(C(=O)O)n1` [ZBG 3, dipicolenic acid], the entries for the “potency v. AHA” value at MMP-3 and at MMP-1 [2] were 4-fold and 3-fold, respectively. Also, the IC50 (usually the concentration that inhibits the measured activity by half) at MMP-3 (pH 6, read-out: MMP-3 IC50) amounted to 6100 µM; in assay [1] (pH 7, read-out: LF IC50), 2690 µM; on MMP-1 [2], 13500 µM.

In the case of `O=C(O)CNCC(=O)O` [ZBG 6, aminodiacetic acid], the “potency v. AHA” value on MMP-3 is reported as 139-fold; on MMP-1 [2], 82-fold. The half-inhibitory concentration (IC50) at MMP-3 (pH 6, read-out: MMP-3 IC50) is 180 µM; in assay [1] (pH 7, read-out: LF IC50), 930 µM; at MMP-1 [2], 510 µM.

Regarding `Cc1occc(=O)c1O` [maltol], the inhibition (commonly the drop in the measured response relative to a control, in per cent) at 300 µM in assay [3] amounted to 70%.

Regarding `O=C(O)c1ccccn1` [ZBG 1, picolinic acid], the IC50 at MMP-3 was 181 µM; in assay [1], 3500 µM; against MMP-1 [4], 2500 µM. The “potency v. AHA” value at MMP-3 was 139-fold; at MMP-1 [2], 17-fold. For the same molecule, in assay [3] (ZBGs, method gives chelator final concentration 100 μM), the “inhibition of lipoxygenase activity” value turned out to be 2.3%.

For `CC(=O)NO` [AHA, acetohydroxamic acid, reference compound], the IC50 against MMP-3 came out at 25100 µM; in assay [1] (pH 7, read-out: LF IC50), 11400 µM; at MMP-1 [4] it was 41600 µM. Also, the inhibition at 300 µM in assay [3] worked out at 99%.

As for di(2-picolyl)amine [ZBG 5], the “potency v. AHA” value at MMP-3 is listed as 185-fold; at MMP-1 [2], 660-fold. In addition, the IC50 at MMP-3 (pH 6, read-out: MMP-3 IC50) worked out at 136 µM; in assay [1] (pH 7, read-out: LF IC50) it was 370 µM.

As to `C1CNCCNCCNCCN1` [ZBG 4, cyclen], the results for the “potency v. AHA” value at MMP-3 and on MMP-1 [2] were 163-fold and 98-fold, respectively. For the same molecule, the IC50 on MMP-3 (pH 6, read-out: MMP-3 IC50) stood at 154 µM; in assay [1] (pH 7, read-out: LF IC50), 5700 µM; on MMP-1 [2], 430 µM.

With `C1CNCCNCCN1` [ZBG 2], the “potency v. AHA” value at MMP-3 was 19-fold; on MMP-1 [2], 7-fold. The IC50 was 1350 µM at MMP-3 (pH 6, read-out: MMP-3 IC50); 1280 µM in assay [1] (pH 7, read-out: LF IC50); 5690 µM at MMP-1 [2].

With `c1ccc(CNCc2ccccn2)nc1` [ZBG 5, di(2-picolyl)amine], the IC50 on MMP-1 [2] was 63 µM.
